In patent US20250255941A1 (priority 2021, published 2025):
Values joined by “and” are separate entries in the source; they are usually repeats but may differ in a detail not shown here. Equal values may be shown once.

Key:
[1] = system: prostaglandin F2a; type: cell-based; settings: 5 μM
[2] = system: Keratinocytes; settings: 5 μM

What does the source list for `CS(=O)(=O)Nc1ccc([N+](=O)[O-])cc1OC1CCCCC1` [NS-398]?
Absorbance value (405 nm), individual measurements (n=4) [1]: 0.6170 and 0.6000 and 0.6110 and 0.6220; PGF2alpha (pg/mL), individual measurements (n=4) [1]: 70.9 pg/mL and 86.8 pg/mL and 76.1 pg/mL and 66.8 pg/mL; PGF2alpha (pg/mL)/MTT, Mean [1]: 86.3 (pg/mL)/MTT; PGF2alpha (pg/mL)/MTT, individual measurements (n=4) [1]: 81.5 (pg/mL)/MTT and 101.6 (pg/mL)/MTT and 86.6 (pg/mL)/MTT and 75.4 (pg/mL)/MTT; prostaglandin F2a expression, % of control [1]: 9.3%; Cytotoxicity test (MTT), % of control [2]: 102.0%; Cytotoxicity test (MTT), Mean [2]: 0.8720
